Test results taken from patent US6962912B2, “Substituted pyrazolo[4,3-e]diazepines, pharmaceutical compositions containing them, use as medicinal products and processes for preparing them” (Warner-Lambert LLC, priority 2000, dated 2005).

Columns and labels:
PDE4 = experiment: Inhibition of PDE4 (cytosolic enzyme preparation from U937 line), compared with rolipram; assay type: biochemical, human; conditions: PDE4 enzyme preparation obtained from the U937 line
production of TNFα = experiment: in vivo TNFα model in Wistar rats (LPS-induced); conditions: oral administration 30 min before i.p. LPS; plasma 90 min after LPS; male Wistar rats
From the text: TNFα is a cytokine which plays a central role in the mechanisms of inflammation. Its production can be induced by an injection of lipopolysaccharide (LPS). It has been shown that the increase in intracellular cAMP, produced in particular by PDE4 inhibitors, decreases the production of TNFα in in vitro and in vivo models. It is thus a matter here of quantifying in vivo the anti-inflammatory potential of the compounds of the invention, administered orally (p.o.) by measuring the inhibition of the production of TNFα in the plasma of rats, these rats having received an intraperitoneal (i.p.) injection of lipopolysaccharide (LPS). The treatment with the compounds of the invention or the vehicle are [sic] administered orally to male Wistar rats, 30 min before the injection of LPS. The rats are sacrificed 90 min after the stimulation with LPS, the blood is collected onto EDTA and the TNFα concentration is measured in each plasma sample. […] References • Chen, Y. L., Le Vraux, V., Giroud, J. P. and Chauvelot-Moachon L. (1994). Anti-tumor necrosis factor properties of non-peptide drugs in acute-phase responses. […] Int. J. Immunopharmacol., 16 (10), 805-816. Model of Eosinophilia in Rats

Row | SMILES | IC50 (PDE4) [nM] | melting point [°C] | inhibition of the production of TNFα in the plasma of rats (production of TNFα)
1 | CCn1nc(C)c2c1C(=O)NCC(C(C)(C)C)N2 (centres unmarked) [5-tert-Butyl-1-ethyl-3-methyl-4,5,6,7-tetrahydro-1H-pyrazolo[4,3-e][1,4]diazepin-8-one] | – | – | excellent activity
2 | CCn1nc(C(C)C)c2c1C(=O)NCC(c1ccccc1)=N2 [Example 1, 1-Ethyl-3-isopropyl-5-phenyl-6,7-dihydro-1H-pyrazolo[4,3-e][1,4]diazepin-8-one] | 4.9 | 157.2 | excellent activity
3 | CCn1nc(C(C)C)c2c1C(=S)NCC(c1ccccc1)=N2 [Example 2, 1-Ethyl-3-isopropyl-5-phenyl-6,7-dihydro-1H-pyrazolo[4,3-e][1,4]diazepin-8-thione] | 0.98 | 164 | excellent activity
4 | CCn1nc(C(C)C)c2c1C(=NC#N)NCC(c1ccccc1)=N2 [Example 3, 1-Ethyl-3-isopropyl-5-phenyl-6,7-dihydro-1H-pyrazolo[4,3-e][1,4]diazepin-8-ylidenecyanamide] | 0.12 | 222 | excellent activity
5 | CCn1nc(C)c2c1C(=O)NCC(c1ccc(OC)cc1)=N2 [Example 6, 1-Ethyl-5-(4-methoxyphenyl)-3-methyl-6,7-dihydro-1H-pyrazolo[4,3-e][1,4]diazepin-8-one] | 420 | 178 | excellent activity
6 | CCn1nc(C)c2c1C(=O)NCC(c1ccc(N)cc1)=N2 [Example 12, 5-(4-Aminophenyl)-1-ethyl-3-methyl-6,7-dihydro-1H-pyrazolo-[4,3-e][1,4]diazepin-8-one] | 100 | 212 | excellent activity
7 | CCCn1nc(C)c2c1C(=O)NCC(c1ccccc1)=N2 [Example 15, 3-Methyl-5-phenyl-1-propyl-6,7-dihydro-1H-pyrazolo-[4,3-e][1,4]diazepin-8-one] | 520 | 171 | excellent activity
8 | Cc1nn(CCO)c2c1N=C(c1ccccc1)CNC2=O [Example 16, 1-(2-Hydroxyethyl)-3-methyl-5-phenyl-6,7-dihydro-1H-pyrazolo[4,3-e][1,4]diazepin-8-one] | 420 | 75 | excellent activity
9 | CCn1nc(C)c2c1C(=S)NCC(c1ccccc1)=N2 [Example 17, 1-Ethyl-3-methyl-5-phenyl-6,7-dihydro-1H-pyrazolo[4,3-e][1,4]diazepin-8-thione] | 5.9 | 203.5 | excellent activity
10 | CCn1nc(C(C)(C)C)c2c1C(=O)NCC(c1ccccc1)=N2 [Example 21, 3-tert-Butyl-1-ethyl-5-phenyl-6,7-dihydro-1H-pyrazolo[4,3-e][1,4]diazepin-8-one] | 2.6 | 160 | excellent activity
11 | CCn1nc(C)c2c1C(=O)NCC(c1ccc(C)cc1)=N2 [Example 23, 1-Ethyl-3-methyl-5-p-tolyl-6,7-dihydro-1H-pyrazolo[4,3-e][1,4]diazepin-8-one] | 42 | 185 | excellent activity
12 | CCn1nc(C)c2c1C(=O)NCC(c1cccc(N)c1)=N2 [Example 24, 5-(3-Aminophenyl)-1-ethyl-3-methyl-6,7-dihydro-1H-pyrazolo[4,3-e][1,4]diazepin-8-one] | 78 | 80 | excellent activity

Further lines, with some results ahead:

Row | IC50 (PDE4) [nM] | melting point [°C] | SMILES | inhibition of the production of TNFα in the plasma of rats (production of TNFα)
13 | 6.2 | – | CCC(C)c1nn(CC)c2c1N=C(c1ccccc1)CNC2=O (racemic) [Example 68, (±)3-sec-Butyl-1-ethyl-5-phenyl-6,7-dihydro-1H-pyrazolo[4,3-e][1,4]diazepin-8-one] | excellent activity
14 | 13 | 86 to 88.5 | CCC(C)c1nn(CC)c2c1N=C(c1ccncc1)CNC2=O (racemic) [Example 69, (±)3-sec-Butyl-1-ethyl-5-pyrid-4-yl-6,7-dihydro-1H-pyrazolo[4,3-e][1,4]diazepin-8-one] | excellent activity
15 | 35 | 110 | CCCn1nc(C(C)CC)c2c1C(=O)NCC(c1ccncc1)=N2 (racemic) [Example 71, (±)3-sec-Butyl-1-propyl-5-pyrid-4-yl-6,7-dihydro-1H-pyrazolo[4,3-e][1,4]diazepin-8-one] | excellent activity
16 | 2.4 | 230 | CCn1nc(C(C)(C)C)c2c1C(=S)NCC(c1ccccc1)=N2 [Example 25, 3-tert-Butyl-1-ethyl-5-phenyl-6,7-dihydro-1H-pyrazolo[4,3-e][1,4]diazepin-8-thione] | excellent activity
17 | 5.6 | 189 | CCn1nc(C(C)(C)C)c2c1C(=O)NCC(c1ccc(N)cc1)=N2 [Example 26, 5-(4-Aminophenyl)-3-tert-butyl-1-ethyl-6,7-dihydro-1H-pyrazolo[4,3-e][1,4]diazepin-8-one] | excellent activity
18 | 90 | 250 | CCn1nc(C)c2c1C(=O)NCC(c1ccc(O)cc1)=N2 [Example 28, 1-Ethyl-5-(4-hydroxyphenyl)-3-methyl-6,7-dihydro-1H-pyrazolo[4,3-e][1,4]diazepin-8-one] | excellent activity
19 | 190 | 50 | CCn1nc(C)c2c1C(=O)NCC(C1CCCCC1)=N2 [Example 31, 5-Cyclohexyl-1-ethyl-3-methyl-6,7-dihydro-1H-pyrazolo[4,3-e][1,4]diazepin-8-one] | excellent activity
20 | 0.7 | – | CCn1nc(C(C)C)c2c1C(=O)NCC(C(C)(C)C)=N2 [Example 35, 5-tert-Butyl-1-ethyl-3-isopropyl-6,7-dihydro-1H-pyrazolo[4,3-e][1,4]diazepin-8-one] | excellent activity
21 | 0.39 | – | CCn1nc(C(C)C)c2c1C(=O)NCC(c1ccc(C)cc1)=N2 [Example 36, 1-Ethyl-3-isopropyl-5-p-tolyl-6,7-dihydro-1H-pyrazolo[4,3-e][1,4]diazepin-8-one] | excellent activity
22 | 0.97 | – | CCn1nc(C(C)C)c2c1C(=O)NCC(c1ccc(C#N)cc1)=N2 [Example 37, 4-(1-Ethyl-3-isopropyl-8-oxo-1,6,7,8-tetrahydro-pyrazolo[4,3-e][1,4]diazepin-5-yl)benzonitrile] | excellent activity
23 | 9.1 | – | CCn1nc(C(C)C)c2c1C(=O)NCC(c1ccc(OC)cc1OC)=N2 [Example 39, 5-(2,4-Dimethoxyphenyl)-1-ethyl-3-isopropyl-6,7-dihydro-1H-pyrazolo[4,3-e][1,4]diazepin-8-one] | excellent activity
24 | 8.2 | – | CCCn1nc(C(C)C)c2c1C(=O)NCC(C(C)(C)C)=N2 [Example 40, 5-tert-Butyl-3-isopropyl-1-propyl-6,7-dihydro-1H-pyrazolo[4,3-e][1,4]diazepin-8-one] | excellent activity
25 | 11 | – | CCCn1nc(C(C)C)c2c1C(=O)NCC(c1ccc(C)cc1)=N2 [Example 41, 3-Isopropyl-1-propyl-5-p-tolyl-6,7-dihydro-1H-pyrazolo[4,3-e][1,4]diazepin-8-one] | excellent activity
26 | 10 | – | CCCn1nc(C(C)C)c2c1C(=O)NCC(c1ccc(C#N)cc1)=N2 [Example 42, 4-(3-Isopropyl-8-oxo-1-propyl-1,6,7,8-tetrahydro-pyrazolo[4,3-e][1,4]diazepin-5-yl)benzonitrile] | excellent activity
27 | 2.6 | – | CCn1nc(C(C)(C)C)c2c1C(=O)NCC(c1ccc(C)cc1)=N2 [Example 45, 3-tert-Butyl-1-ethyl-5-p-tolyl-6,7-dihydro-1H-pyrazolo[4,3-e][1,4]diazepin-8-one] | excellent activity
28 | 0.84 | – | CCn1nc(C(C)(C)C)c2c1C(=O)NCC(c1ccc(C#N)cc1)=N2 [Example 46, 4-(3-tert-Butyl-1-ethyl-8-oxo-1,6,7,8-tetrahydro-pyrazolo[4,3-e][1,4]diazepin-5-yl)benzonitrile] | excellent activity
29 | 4.9 | – | CCCn1nc(C2CCCCC2)c2c1C(=O)NCC(c1ccncc1)=N2 [Example 75, 3-Cyclohexyl-1-propyl-5-pyrid-4-yl-6,7-dihydro-1H-pyrazolo-[4,3-e][1,4]diazepin-8-one] | excellent activity
